Values of other authors as cited in US9642799B2, “Crystalline 6-(2-((4-amino-3-(3-hydroxyphenyl)-1H-pyrazolo[3,4-D]pyrimidin-1-yl)methyl)-3-(2-chlorobenzyl)-4-0X0-3,4-dihydroquinazolin-5-yl)-N,N-bis(2-methoxyethyl)hex-5-ynamide” (Respivert Limited, priority 2012, dated 2017).

How the values were obtained:
murine model = details: administered by aerosolisation
[1] = elicited by either LPS or cigarette smoke
[2] = system: ovalbumin-sensitized, ovalbumin-challenged mice
mice = details: stimulated by TNFα

Nc1nc(N)c2nc(-c3cccc(O)c3)c(-c3cccc(O)c3)nc2n1 [TG100-115]
pulmonary eosinophilia, interleukin-13, mucin accumulation and airways hyperesponsiveness (murine model): reported to inhibit | pulmonary neutrophilia [1]: able to inhibit

Cc1ccccc1-n1c(Cn2cnc3c(N)ncnc32)nc2cccc(C)c2c1=O [IC-87114]
airways hyper-responsiveness, IgE release, pro-inflammatory cytokine expression, inflammatory cell accumulation into the lung and vascular permeability [2]: found to inhibit | neutrophil accumulation in the lungs and neutrophil function (mice): lowered
